From US20250296914A1, “ANTIVIRAL COMPOUNDS AND COMPOSITIONS THEREFROM” (CONSEJO SUPERIOR DE INVESTIGACIONES CIENTÍFICAS, priority 2022, published 2025)

Assays:
[1] = system: SARS-CoV-2 stock strain NL/2020; experiment: Intracellular viral antigen (N protein) accumulation by immunofluorescence, A549-ACE2; format: cell-based; conditions: Severe acute respiratory syndrome coronavirus 2; A549-ACE2, MOI 0.005, viral antigen staining, 48 h
[2] = system: SARS-CoV-2 stock strain NL/2020; experiment: Intracellular viral antigen (N protein) accumulation by immunofluorescence, Calu3; format: cell-based; conditions: Severe acute respiratory syndrome coronavirus 2; Calu-3, MOI 0.005, viral antigen staining, 48 h
WNV-GFP virus = format: cell-based, West Nile Virus; conditions: Huh-7, MOI 0.01, 48 h, FIG. 2
hCoV-229E-GFP virus = format: cell-based, Human coronavirus 229E
in vitro [3] = conditions: human
[4] = system: SARS-CoV-2 stock strain NL/2020; experiment: Intracellular viral antigen (N protein) accumulation by immunofluorescence, Vero-E6; format: cell-based; conditions: Severe acute respiratory syndrome coronavirus 2, Vero C1008; Vero-E6, MOI 0.005, viral antigen staining, 24 h
VSV-GFP virus = format: cell-based, Vesicular Stomatitis Virus
in vitro [5] = conditions: African green monkey
in vitro [6] = conditions: human; remark: listed apart in the source
[7] = system: SARS-CoV-2 stock strain NL/2020; experiment: Protective effect against virus-induced cytopathic effect (crystal violet staining of Vero-E6 monolayer); format: cell-based; conditions: Severe acute respiratory syndrome coronavirus 2, Vero C1008, 72 h, Vero-E6, SARS-CoV-2 MOI 0.001, 72 h; for minimal effective concentration: 50 to 0.78 μM tested, read-out: PC MIN (lowest protective concentration); for EC50: lowest fully protecting concentration averaged with next lower dilution, read-out: ESTIMATED EC50
[8] = system: SARS-CoV-2 stock strain NL/2020; experiment: Intracellular viral RNA quantification by RT-qPCR in A549-ACE2 cells; format: cell-based

| Structure (SMILES) | EC50 [1] | EC90 [1] | EC50 [2] | EC90 [2] | Prevention of infection by West Nile Virus (GFP expression, in words) (WNV-GFP virus) | Prevention of infection with 229E-GFP (GFP expression, in words) (hCoV-229E-GFP virus) | CC50 at 48 h (in vitro [3]) | EC50 [4] | EC90 [4] | Prevention of infection by Vesicular Stomatitis Virus (GFP expression, in words) (VSV-GFP virus) | CC50 at 48 h (in vitro [5]) | CC50 at 48 h (in vitro [6]) | minimal effective concentration [7] | EC50 [7] | LOG viral RNA reduction ([8]; A549-ACE2, MOI 0.005, 48 h, compound concentration 4 μM, vs DMSO) | Prevention of SARS-CoV-2 propagation (in words) ([8]; A549-ACE2, conclusion from Table 5) |
| --- | --- | --- | --- | --- | --- | --- | --- | --- | --- | --- | --- | --- | --- | --- | --- | --- |
| COC(=O)c1cc(-c2ccc(N3CCCC3)nc2)ccc1NC(C#N)[C@H](Cc1c[nH]c2ccccc12)NC(=O)OC(C)(C)C (stereo partly drawn) [(Iq), methyl 2-(((2S)-2-((tert-butoxycarbonyl)amino)-1-cyano-3-(1H-indol-3-yl)propyl)amino)-5-(6-(pyrrolidin-1-yl)pyridin-3-yl)benzoate] | 1.5 µM | 5 µM | 0.3 µM | 2.5 µM | not being suitable for preventing the infection | suitable for preventing efficiently the infection | > 50 µM | 0.2 µM | 0.9 µM | not being suitable for preventing the infection | > 50 µM | > 50 µM | 1.56 µM | 1.17 µM |  |  |
| COC(=O)c1cc(-c2ccc(N3CCOCC3)cc2)ccc1NC(C#N)[C@H](Cc1c[nH]c2ccccc12)NC(=O)OC(C)(C)C (stereo partly drawn) [(Ia), methyl 4-(((2S)-2-((tert-butoxycarbonyl)amino)-1-cyano-3-(1H-indol-3-yl)propyl)-amino)-4′-morpholino-[1,1′-biphenyl]-3-carboxylate] | 1 µM | 1.8 µM | 0.2 µM | 2 µM | not being suitable for preventing the infection | suitable for preventing efficiently the infection | > 50 µM | 0.3 µM | 0.5 µM | not being suitable for preventing the infection | > 50 µM | > 50 µM | 0.78 µM | 0.58 µM |  |  |
| CC(C)(C)OC(=O)N[C@@H](Cc1c[nH]c2ccccc12)C(C#N)Nc1ccc(Br)cc1C(=O)c1ccccc1 (stereo partly drawn) [(Ic), (3S)-2-((4-Bromo-2-benzoylphenyl)amino)-4-(1H-indol-3-yl)-3-(tert-butoxycarbonylamino)butanenitrile] | 1 µM | 2.1 µM | 1.2 µM | 1.8 µM | not being suitable for preventing the infection | suitable for preventing efficiently the infection |  | 0.2 µM | 0.3 µM | not being suitable for preventing the infection | > 50 µM |  | 0.78 µM | 0.58 µM | 4.26 LOG | effective in preventing propagation of SARS-CoV-2 |
